Assay results: publication PMC3692431, “Anticonvulsant Activity of B2, an Adenosine Analog, on Chemical Convulsant-Induced Seizures” (PLoS ONE, 2013)

Test system: PTZ-induced seizures
Test: PTZ-induced seizures in mice
Format: in vivo
Conditions: PTZ 85 mg/kg s.c.; for seizure occurrence: all control mice seized; for latency to seizure onset prolonged by / number of seizures reduced by: vs control
Protocol: The latency of seizure onset, number of seizures, and mortality rate was recorded for the picrotoxin-injected mice. For the PTZ-injected mice, we recorded the latency of seizure onset, number of seizures, and presence of clonic seizures.

Question: Which results are given for `COc1cc(CNc2ncnc3c2ncn3[C@@H]2O[C@H](CO)[C@@H](O)[C@H]2O)ccc1O` [B2, N^6-(3-methoxyl-4-hydroxybenzyl) adenine riboside]?
Answer: seizure occurrence (B2 1.25 mg/kg i.p.): 70%; latency to seizure onset prolonged by (B2 1.25 mg/kg i.p.): 43%; number of seizures reduced by (B2 1.25 mg/kg i.p.): 39%; seizure occurrence (B2 5 mg/kg i.p.): 30%; latency to seizure onset prolonged by (B2 5 mg/kg i.p.): 89%; number of seizures reduced by (B2 5 mg/kg i.p.): 70%; seizure occurrence (B2 20 mg/kg i.p.): 50%; latency to seizure onset prolonged by (B2 20 mg/kg i.p.): 93%; number of seizures reduced by (B2 20 mg/kg i.p.): 62%
